Laboratory results taken from ChEMBL document CHEMBL5034035, “Discovery of an Oxycyclohexyl Acid Lysophosphatidic Acid Receptor 1 (LPA1) Antagonist BMS-986278 for the Treatment of Pulmonary Fibrotic Diseases” (J Med Chem, 2021).

How the values were obtained:
[1] = Half life in rat liver microsomes at 10 uM measured after 120 mins; format: ADME, Microsome
[2] = Plasma clearance in CD-1 mouse at 3 mg/kg, po or 1 mg/kg, iv measured up to 24 hrs by LC-MS/MS analysis; format: ADME, organism-based
[3] = Elimination half life in Sprague-Dawley rat at 3 mg/kg, po or 1 mg/kg, iv measured up to 24 hrs by LC-MS/MS analysis; format: ADME, organism-based; conditions: in vivo, read-out: beta t1/2 (converted)
[4] = Volume of distribution at steady state in Sprague-Dawley rat at 3 mg/kg, po or 1 mg/kg, iv measured up to 24 hrs by LC-MS/MS analysis; format: ADME, organism-based; conditions: in vivo, read-out: Vdss
[5] = molecular target: ATP-binding cassette sub-family C member 3 (Homo sapiens, UniProt O15438); assay: Inhibition of MRP3 (unknown origin)
[6] = Plasma clearance in Cynomolgus monkey at 3 mg/kg, po or 1 mg/kg, iv measured up to 24 hrs by LC-MS/MS analysis; format: ADME, organism-based, Macaca fascicularis
[7] = Oral bioavailability in CD-1 mouse at 3 mg/kg measured up to 24 hrs by LC-MS/MS analysis; format: ADME, organism-based; conditions: in vivo
[8] = Protein binding in Cynomolgus monkey plasma assessed as free fraction at 3 mg/kg, po or 1 mg/kg, iv measured up to 24 hrs by LC-MS/MS analysis; format: ADME, organism-based, Macaca fascicularis
[9] = Drug metabolism in monkey hepatocytes assessed as formation of acyl glucuronides metabolites at 10 uM measured after 2 hrs by LC/UV/MS analysis; format: ADME, cell-based, Macaca mulatta, Hepatocyte; conditions: rhesus monkey
[10] = molecular target: T1, Solute carrier organic anion transporter family member 1B1 (Homo sapiens, UniProt Q9Y6L6); assay: Inhibition of OATP1B1 (unknown origin); format: ADME
T1 sequence (Q9Y6L6 whole entry): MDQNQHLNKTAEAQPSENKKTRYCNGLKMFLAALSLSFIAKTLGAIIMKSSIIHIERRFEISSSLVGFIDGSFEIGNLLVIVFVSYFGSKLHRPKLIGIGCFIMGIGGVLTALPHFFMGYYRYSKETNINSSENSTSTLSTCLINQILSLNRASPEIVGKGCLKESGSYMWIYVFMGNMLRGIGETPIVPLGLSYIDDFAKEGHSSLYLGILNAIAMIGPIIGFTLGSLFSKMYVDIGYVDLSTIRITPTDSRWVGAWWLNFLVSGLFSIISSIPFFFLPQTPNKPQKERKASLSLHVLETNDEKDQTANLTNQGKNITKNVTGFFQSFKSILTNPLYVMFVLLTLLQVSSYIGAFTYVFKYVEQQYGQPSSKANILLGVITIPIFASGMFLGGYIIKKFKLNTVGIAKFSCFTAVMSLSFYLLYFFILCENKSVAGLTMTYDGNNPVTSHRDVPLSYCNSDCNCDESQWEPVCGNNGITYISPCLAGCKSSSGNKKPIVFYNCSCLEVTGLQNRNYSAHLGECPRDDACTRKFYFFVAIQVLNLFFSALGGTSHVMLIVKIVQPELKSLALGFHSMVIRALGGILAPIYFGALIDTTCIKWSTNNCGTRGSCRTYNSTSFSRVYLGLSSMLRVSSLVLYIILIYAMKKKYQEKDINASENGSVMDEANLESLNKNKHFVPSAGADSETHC

[11] = Oral bioavailability in Sprague-Dawley rat at 3 mg/kg measured up to 24 hrs by LC-MS/MS analysis; format: ADME, organism-based; conditions: in vivo
[12] = Elimination half life in cynomolgus monkey at 3 mg/kg, po or 1 mg/kg, iv measured up to 24 hrs by LC-MS/MS analysis; format: ADME, organism-based, Macaca fascicularis; conditions: in vivo, read-out: beta t1/2 (converted)
[13] = molecular target: T2, ATP-binding cassette sub-family C member 4 (Homo sapiens, UniProt O15439); assay: Inhibition of MRP4 (unknown origin)
T2 sequence (O15439 whole entry): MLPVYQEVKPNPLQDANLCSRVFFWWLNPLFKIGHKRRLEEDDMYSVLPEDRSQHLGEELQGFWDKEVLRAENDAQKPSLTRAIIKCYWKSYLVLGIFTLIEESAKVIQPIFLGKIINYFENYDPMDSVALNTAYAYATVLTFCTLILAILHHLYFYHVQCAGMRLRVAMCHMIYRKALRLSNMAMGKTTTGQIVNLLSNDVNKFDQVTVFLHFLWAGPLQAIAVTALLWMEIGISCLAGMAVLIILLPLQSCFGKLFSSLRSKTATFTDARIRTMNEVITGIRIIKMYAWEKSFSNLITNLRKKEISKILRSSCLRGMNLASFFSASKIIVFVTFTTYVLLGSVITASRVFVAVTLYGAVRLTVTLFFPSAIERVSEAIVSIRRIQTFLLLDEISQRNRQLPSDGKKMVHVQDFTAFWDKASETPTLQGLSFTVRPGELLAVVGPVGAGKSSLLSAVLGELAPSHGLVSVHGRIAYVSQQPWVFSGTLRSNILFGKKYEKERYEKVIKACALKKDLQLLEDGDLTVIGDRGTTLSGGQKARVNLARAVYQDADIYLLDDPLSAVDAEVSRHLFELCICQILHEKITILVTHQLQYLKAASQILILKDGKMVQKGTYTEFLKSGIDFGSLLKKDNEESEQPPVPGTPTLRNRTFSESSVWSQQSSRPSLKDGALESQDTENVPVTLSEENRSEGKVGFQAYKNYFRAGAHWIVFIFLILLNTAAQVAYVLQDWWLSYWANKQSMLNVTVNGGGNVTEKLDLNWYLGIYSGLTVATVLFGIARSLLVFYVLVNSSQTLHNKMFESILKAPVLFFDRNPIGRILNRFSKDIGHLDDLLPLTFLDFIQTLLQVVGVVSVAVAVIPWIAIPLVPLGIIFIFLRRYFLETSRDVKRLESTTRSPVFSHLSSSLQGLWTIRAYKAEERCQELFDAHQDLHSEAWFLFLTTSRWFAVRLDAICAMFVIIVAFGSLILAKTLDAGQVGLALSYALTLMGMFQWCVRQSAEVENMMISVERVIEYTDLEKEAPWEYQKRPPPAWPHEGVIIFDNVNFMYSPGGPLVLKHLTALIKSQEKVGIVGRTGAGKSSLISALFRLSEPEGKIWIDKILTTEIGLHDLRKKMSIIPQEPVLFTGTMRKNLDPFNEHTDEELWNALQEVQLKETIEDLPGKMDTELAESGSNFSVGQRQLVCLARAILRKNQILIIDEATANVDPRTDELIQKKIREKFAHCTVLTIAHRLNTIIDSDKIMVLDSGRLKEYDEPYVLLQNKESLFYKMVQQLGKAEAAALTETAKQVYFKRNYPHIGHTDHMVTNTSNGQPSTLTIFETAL

CYP3A4 = CYP3A4 (Homo sapiens, UniProt P08684); assay: Induction of CYP3A4 in human hepatocytes; format: ADME, cell-based, Hepatocyte
[14] = molecular target: Phosphatidylcholine translocator ABCB4 (Homo sapiens, UniProt P21439); assay: Inhibition of MDR3 (unknown origin); format: ADME
[15] = molecular target: Lysophosphatidic acid receptor 1 (Mus musculus) (UniProt P61793); assay: Antagonist activity at mouse LPA1 receptor expressed in CHO cells assessed as inhibition of LPA stimulated calcium flux incubated for 20 mins followed by LPA stimulation and measured for 90 seconds; format: functional, cell-based; conditions: filed as antagonist
Chain of Lysophosphatidic acid receptor 1 (Mus musculus) (P61793 whole entry): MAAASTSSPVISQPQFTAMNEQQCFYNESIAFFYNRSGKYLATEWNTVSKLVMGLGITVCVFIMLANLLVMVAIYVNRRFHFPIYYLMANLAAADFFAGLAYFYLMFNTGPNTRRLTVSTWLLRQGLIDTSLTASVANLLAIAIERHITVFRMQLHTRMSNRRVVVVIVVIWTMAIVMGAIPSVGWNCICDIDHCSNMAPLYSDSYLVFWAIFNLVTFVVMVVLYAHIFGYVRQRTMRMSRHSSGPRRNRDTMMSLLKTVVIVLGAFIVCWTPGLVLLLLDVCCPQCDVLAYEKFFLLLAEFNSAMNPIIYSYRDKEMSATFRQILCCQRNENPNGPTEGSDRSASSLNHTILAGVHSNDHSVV

Chain of ATP-binding cassette sub-family C member 3 (O15438 whole entry): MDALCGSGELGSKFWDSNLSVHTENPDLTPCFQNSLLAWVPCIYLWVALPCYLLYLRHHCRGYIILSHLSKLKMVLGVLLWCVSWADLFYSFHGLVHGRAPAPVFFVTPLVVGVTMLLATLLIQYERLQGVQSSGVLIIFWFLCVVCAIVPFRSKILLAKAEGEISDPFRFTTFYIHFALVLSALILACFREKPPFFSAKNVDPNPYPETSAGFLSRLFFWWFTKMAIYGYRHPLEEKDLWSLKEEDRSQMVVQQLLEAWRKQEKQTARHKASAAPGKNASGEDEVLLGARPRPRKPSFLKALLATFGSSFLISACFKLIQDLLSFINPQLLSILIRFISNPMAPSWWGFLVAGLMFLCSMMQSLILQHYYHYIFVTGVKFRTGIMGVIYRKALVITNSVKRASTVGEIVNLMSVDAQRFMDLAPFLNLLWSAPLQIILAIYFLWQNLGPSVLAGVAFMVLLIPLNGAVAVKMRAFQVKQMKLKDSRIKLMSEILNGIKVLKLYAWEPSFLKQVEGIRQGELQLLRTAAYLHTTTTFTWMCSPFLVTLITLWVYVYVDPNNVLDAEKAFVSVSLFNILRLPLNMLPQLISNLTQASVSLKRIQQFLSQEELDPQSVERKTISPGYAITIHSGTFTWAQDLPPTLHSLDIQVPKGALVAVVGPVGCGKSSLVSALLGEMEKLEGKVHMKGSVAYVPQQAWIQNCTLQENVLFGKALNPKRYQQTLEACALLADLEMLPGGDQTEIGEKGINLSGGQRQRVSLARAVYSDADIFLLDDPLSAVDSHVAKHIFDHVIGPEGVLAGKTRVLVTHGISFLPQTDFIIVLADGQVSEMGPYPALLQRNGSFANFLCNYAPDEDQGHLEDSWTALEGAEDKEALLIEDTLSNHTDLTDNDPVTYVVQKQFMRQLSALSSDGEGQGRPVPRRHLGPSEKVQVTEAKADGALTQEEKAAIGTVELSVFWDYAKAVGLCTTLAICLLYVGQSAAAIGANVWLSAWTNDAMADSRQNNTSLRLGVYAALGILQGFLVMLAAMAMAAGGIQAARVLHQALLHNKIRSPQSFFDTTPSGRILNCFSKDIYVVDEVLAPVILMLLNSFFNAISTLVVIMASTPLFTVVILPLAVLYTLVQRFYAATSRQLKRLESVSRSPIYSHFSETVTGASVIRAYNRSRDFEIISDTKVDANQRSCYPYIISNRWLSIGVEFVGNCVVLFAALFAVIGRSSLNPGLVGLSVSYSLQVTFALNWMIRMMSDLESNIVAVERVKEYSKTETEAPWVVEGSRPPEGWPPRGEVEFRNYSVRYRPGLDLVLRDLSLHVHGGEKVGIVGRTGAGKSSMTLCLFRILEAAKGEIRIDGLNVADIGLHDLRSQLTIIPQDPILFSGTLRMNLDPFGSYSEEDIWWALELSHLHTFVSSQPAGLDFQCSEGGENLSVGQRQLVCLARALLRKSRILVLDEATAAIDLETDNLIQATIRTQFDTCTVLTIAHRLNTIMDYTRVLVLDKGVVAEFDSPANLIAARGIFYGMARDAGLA
Chain of CYP3A4 (P08684 whole entry): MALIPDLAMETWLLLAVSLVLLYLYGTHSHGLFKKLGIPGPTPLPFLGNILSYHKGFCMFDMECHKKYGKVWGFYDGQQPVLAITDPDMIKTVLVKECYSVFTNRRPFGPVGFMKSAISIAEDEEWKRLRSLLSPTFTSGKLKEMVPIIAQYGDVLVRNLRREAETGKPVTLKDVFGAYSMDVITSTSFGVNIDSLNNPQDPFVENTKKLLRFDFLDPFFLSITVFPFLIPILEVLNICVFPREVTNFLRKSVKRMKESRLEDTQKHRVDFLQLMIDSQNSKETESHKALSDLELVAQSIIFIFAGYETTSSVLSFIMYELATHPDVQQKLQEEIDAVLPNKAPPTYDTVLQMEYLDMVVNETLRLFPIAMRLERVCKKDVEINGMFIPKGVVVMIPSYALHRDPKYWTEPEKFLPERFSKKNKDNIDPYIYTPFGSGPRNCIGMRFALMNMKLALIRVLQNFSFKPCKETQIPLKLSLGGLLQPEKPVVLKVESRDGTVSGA
Chain of Phosphatidylcholine translocator ABCB4 (P21439 whole entry): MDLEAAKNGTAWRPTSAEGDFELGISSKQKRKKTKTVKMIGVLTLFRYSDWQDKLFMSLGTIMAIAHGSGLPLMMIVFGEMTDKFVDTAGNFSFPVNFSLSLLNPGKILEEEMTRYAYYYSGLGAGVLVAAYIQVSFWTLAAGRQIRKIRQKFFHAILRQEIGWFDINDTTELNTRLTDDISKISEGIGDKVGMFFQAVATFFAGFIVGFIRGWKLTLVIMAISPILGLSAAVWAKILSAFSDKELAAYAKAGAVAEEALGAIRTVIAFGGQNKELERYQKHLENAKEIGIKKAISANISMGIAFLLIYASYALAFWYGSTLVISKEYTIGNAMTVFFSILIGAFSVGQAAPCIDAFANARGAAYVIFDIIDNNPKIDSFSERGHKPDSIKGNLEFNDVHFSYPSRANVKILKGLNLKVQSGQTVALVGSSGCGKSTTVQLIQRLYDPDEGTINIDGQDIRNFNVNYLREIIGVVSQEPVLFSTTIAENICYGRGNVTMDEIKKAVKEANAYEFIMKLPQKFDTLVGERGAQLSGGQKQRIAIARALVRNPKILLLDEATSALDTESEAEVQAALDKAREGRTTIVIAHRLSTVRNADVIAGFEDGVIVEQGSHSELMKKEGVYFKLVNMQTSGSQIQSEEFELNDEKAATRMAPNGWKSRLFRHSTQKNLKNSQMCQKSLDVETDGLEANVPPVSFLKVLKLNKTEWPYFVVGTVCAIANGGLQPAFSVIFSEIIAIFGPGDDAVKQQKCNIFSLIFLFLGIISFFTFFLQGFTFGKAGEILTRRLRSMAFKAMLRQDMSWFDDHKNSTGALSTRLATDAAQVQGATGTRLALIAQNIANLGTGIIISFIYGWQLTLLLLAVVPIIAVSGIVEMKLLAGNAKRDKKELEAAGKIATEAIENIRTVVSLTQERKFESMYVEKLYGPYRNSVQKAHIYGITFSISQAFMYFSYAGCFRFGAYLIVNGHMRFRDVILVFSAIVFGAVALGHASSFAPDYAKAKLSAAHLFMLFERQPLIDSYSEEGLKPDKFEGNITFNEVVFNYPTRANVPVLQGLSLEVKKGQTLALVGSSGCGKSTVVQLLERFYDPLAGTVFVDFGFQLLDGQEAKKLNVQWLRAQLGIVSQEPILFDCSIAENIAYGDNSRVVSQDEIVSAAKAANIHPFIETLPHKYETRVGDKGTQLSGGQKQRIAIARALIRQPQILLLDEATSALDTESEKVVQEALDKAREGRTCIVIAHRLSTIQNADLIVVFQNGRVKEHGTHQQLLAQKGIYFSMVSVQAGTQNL

Compound	half-life at 10 µM [1]	clearance [2]	half-life [3]	Vd [4]	IC50 [5]	clearance [6]	bioavailability [7]	fraction unbound at 24 h [8]	Drug metabolism [9]	IC50 [10]	bioavailability [11]	half-life [12]	IC50 [13]	IC50 (CYP3A4)	IC50 [14]	Kb [15]
Cc1nc(-c2nnn(C)c2COC(=O)N(C)CC2CCC2)ccc1O[C@H]1CCC[C@H](C(=O)O)C1	> 2 h	118 mL/min/kg	2 h	9 L/kg	24 µM	17 mL/min/kg	91%	0.009	Metabolite_Detected	1.5 µM	69%	14 h	16 µM	> 50 µM	–	–
CCCN(C)C(=O)OCc1c(-c2ccc(O[C@H]3CCC[C@H](C(=O)O)C3)c(C)n2)nnn1C [ADMILPARANT]	> 2 h	37 mL/min/kg	4.5 h	3.5 L/kg	66 µM	2 mL/min/kg	70%	0.008	Metabolite_Detected	36 µM	100%	11 h	47 µM	> 50 µM	> 100 µM	0.004 µM
Cc1noc(-c2ccc(-c3ccc(C4(C(=O)O)CC4)cc3)cc2)c1NC(=O)O[C@H](C)c1ccccc1 [BMS-986020]	1.27 h	–	–	–	22 µM	–	–	–	–	0.17 µM	–	–	6.2 µM	> 50 µM	7.5 µM	0.0037 µM
